Laboratory results published in EP0131252B1, “Thymosin alpha 11” (F. HOFFMANN-LA ROCHE AG, priority 1983, dated 1989).

How the values were obtained:
Candida albicans = test: Protection of mice against infection with Candida albicans (daily i.p. treatment, intravenous challenge); type: in vivo
Source text: The biological activity of thymosin a1 can be determined by utilizing in vivo assays known in the art. Thus, for example, inbred strains of mice are known to vary in their susceptibility to infection with C. albicans. Thus, mice of such strains as C3 H/HeJ or CBA/CaJ are highly susceptible to infection, whereas mice of such strains as C57 BI/10SNJ or C57BI/KsJ were highly resistant to challenge. Since resistance to infection with C. albicans is associated with cell-mediated processes, and therefore with T-lymphocytes, thymic hormones should have an effect on the host response.
Thymosin fraction 5, thymosin a1 or α11 was injected daily i.p. in graded doses into three different groups of mice, beginning two days before intravenous challenge with 4x10^4 cells of Candida albicans.
Mice were treated daily with the indicated doses of thymosin fraction 5, thymosin a1 or thymosin α11 and challenged with 4x 10^4 cells of C. a/bicans two days after the start of treatment
^* Three mice from each set were sacrificed on days 7,14 and 21 after infection and the values represent
the average number of organisms in the left kidneys of the nine mice in each set.

[1] = test system: T cell differentiation and function; test: In vivo assay systems designed to measure T cell differentiation and function
Source text: The present invention relates to the isolation and first complete structural determination of a new polypeptide (thymosin α11 ) isolated from thymosin fraction 5, to pharmaceutically acceptable acid and base addition salts thereof and to pharmaceutical compositions containing this compound or its salts.

AcSer-Asp-Ala-Ala-Val-Asp-Thr-Ser-Ser-Glu-ile-Thr-Thr-Lys-Asp-Leu-Lys-Glu-Lys-Lys-Glu-Val-Val-Glu-Glu-Ala-Glu-Asn-Gly-Arg-Glu-Ala-Pro-Ala-AsnOH [thymosin α11]
potency relative to fraction 5 in ability to induce resistance to infection with C. albicans (Candida albicans; compared on optimum daily doses): about 30 times | daily doses at which most active (Candida albicans; i.p., daily, resistance to infection with C. albicans): 160-320 ng per mouse | protection in comparison with control mice (Candida albicans; injected daily i.p. in graded doses, beginning two days before intravenous challenge with 4x10^4 cells of Candida albicans): provided protection | potency of thymosin a1 and thymosin α11 relative to each other (Candida albicans; resistance to infection with C. albicans): approximately equal in potency | biological activity compared with thymosin a1 [1]: same qualitative and quantitative biological activity as thymosin a1
